Consider four compounds from publication PMC6553790 (PLoS Pathogens, 2019).

Test [1] has as its system P. falciparum Cam3.II lines. Description: Isobologram analyses (fixed-ratio drug combinations). The format is cell-based, Plasmodium falciparum. The settings on record: for Interaction with WLW (isobologram): asynchronous parasites, Cam3.II K13WT and K13C580Y. On the procedure: Assays were performed with fixed ratios of drug combinations (1:0, 4:1, 2:1, 1:1, 1:2, 1:4, and 0:1), tested in duplicate. Combinations were prepared from 16×IC50 drug stocks and tested across a range of two-fold dilutions. Assays were conducted with asynchronous cultures exposed for 72 hr or with tightly synchronized rings or trophozoites (tested at 0–3 hr or 24–27 hr post-invasion, respectively) exposed for 3 hr. Post-pulse drug washouts were conducted as described above for in vitro determination of IC50 levels. IC50 values were derived for each compound tested alone, and fractional IC50 (FIC50) values were determined for each compound tested in combination (FIC50 = […]) and plotted for each drug combination. For each combination, the mean of the sums of FIC50 values at each combination (mean ΣFIC50) was also calculated and the results illustrated using heat maps.

In test [2] the test system is P. falciparum Cam3.II lines. In words: Stage-specificity 1 hr pulse survival assay. Type of test: cell-based, Plasmodium falciparum. The settings on record: 150 nM. On the procedure:
All stage-specificity tests were concluded 72 hr from the start of the experiment. Assays were performed in duplicate. Parasites were prepared by synchronizing ring stages with 5% D-Sorbitol and later isolating the schizonts over a 75% Percoll gradient. These schizonts were allowed to reinvade fresh RBCs at 2% hematocrit. Parasites were tested as purified schizonts, early rings, mid rings, late rings or trophozoites (~45–47, 0–3, 10–13, 18–21 and 24–27 hr post-invasion, respectively), and exposed to drug or DMSO vehicle control in 1 mL volumes. Parasites were seeded at 0.5% parasitemia and 1% hematocrit in a 48-well plate.
Drug-treated parasites were washed as previously described for the RSA0-3h. Briefly, 1 mL cultures were transferred to 15 mL conical tubes, centrifuged at 800×g for 5 minutes to pellet cells, and the culture medium containing drug was carefully removed. Cells were subsequently resuspended in 10 mL drug-free medium, centrifuged, and the wash medium removed. Finally, cells were resuspended in 1 mL of fresh drug-free medium, transferred to a new well, and returned to standard culture conditions for the duration of the assay. Parasitemias were measured by flow cytometry and the survival of drug-treated parasites was calculated as a percent of DMSO-treated control cultures.

The test system of test [3] is Plasmodium parasites. The settings on record: cited from earlier work.
Setting [4] is: combined with WLL, Asynchronous, 72 hr, Cam3.II K13WT.
[5] abbreviates: combined with WLL, Rings, 3 hr exposure, Cam3.II K13C580Y.
[6] abbreviates: combined with WLL, Rings, 3 hr exposure, Cam3.II K13WT.
[7] abbreviates: combined with WLL, Trophozoites, 3 hr exposure, Cam3.II K13C580Y.
The mark [8] stands for this setting: combined with WLL, Trophozoites, 3 hr exposure, Cam3.II K13WT.
Setting [9] is: combined with WLW, Asynchronous, 72 hr, Cam3.II K13C580Y.
[10] abbreviates: combined with WLW, Asynchronous, 72 hr, Cam3.II K13WT.
[11] abbreviates: combined with WLW, Rings, 3 hr exposure, Cam3.II K13C580Y.
[12] abbreviates: combined with WLW, Rings, 3 hr exposure, Cam3.II K13WT.
Setting [13] is: combined with WLW, Trophozoites, 3 hr exposure, Cam3.II K13C580Y.
Where [14] appears, read: combined with WLW, Trophozoites, 3 hr exposure, Cam3.II K13WT.
Setting [15] is: combined with WLL, Asynchronous, 72 hr, Cam3.II K13C580Y.

Entries after “also recorded” stand apart in the source; their conditions may differ.

For `C[C@H]1[C@@H](O)O[C@@H]2O[C@@]3(C)CC[C@H]4[C@H](C)CC[C@@H]1[C@@]24OO3` [DHA, dihydroartemisinin], in test [1] (early rings and trophozoites), the “Interaction with WLW (isobologram)” value is given as “synergy”. Besides, the “Mean of the sums of FIC50 (mean ΣFIC50)” value is listed as 0.89 in test [1] (setting [4]); 0.77 in test [1] (setting [5]); 0.69 in test [1] (setting [6]); 0.68 in test [1] (setting [7]); 0.70 in test [1] (setting [8]); 0.71 in test [1] (setting [9]). In addition, the “Mean of the sums of FIC50 (mean ΣFIC50)” value is 0.66 in test [1] (setting [10]); 0.44 in test [1] (setting [11]); 0.43 in test [1] (setting [12]); 0.73 in test [1] (setting [13]); 0.69 in test [1] (setting [14]). For the same compound, the “Interaction with WLL (isobologram)” value in test [1] (early rings and trophozoites) was “Synergy”. The Mean percent survival in test [2] (Early rings (0–3 hpi), Cam3.II K13C580Y) is on record as 57.9 ± 5.6%; in test [2] (Early rings (0–3 hpi), Cam3.II K13WT), 46.8 ± 10.6%; in test [2] (Late rings (18–21 hpi), Cam3.II K13C580Y) it was 13.5 ± 3.1%; in test [2] (Late rings (18–21 hpi), Cam3.II K13WT), 18.9 ± 5.6%; in test [2] (Mid rings (10–13 hpi), Cam3.II K13C580Y) it was 29.1 ± 3.4%; in test [2] (Mid rings (10–13 hpi), Cam3.II K13WT), 35.4 ± 2.7%. Besides, the Mean percent survival is given as 71.9 ± 13.6% in test [2] (Schizonts (45–48 hpi), Cam3.II K13C580Y); 59.0 ± 5.3% in test [2] (Schizonts (45–48 hpi), Cam3.II K13WT); 4.1 ± 0.6% in test [2] (Trophs (24–27 hpi), Cam3.II K13C580Y); 2.3 ± 0.1% in test [2] (Trophs (24–27 hpi), Cam3.II K13WT).

As to `CC(C)(C)NC(=O)C[C@H](NC(=O)CCc1ccccc1)C(=O)NCCNC(=O)c1cccc(-c2ccccc2)c1` [PKS21004], the “Resistance of selected parasites, fold increase over the sensitive parent” value in test [3] is on record as > 130 fold.

On to `Clc1ccc2c(N3CCN(CCCN4CCN(c5ccnc6cc(Cl)ccc56)CC4)CC3)ccnc2c1` [PPQ, piperaquine], for which the “Interaction with WLL or WLW” value in test [1] (across asynchronous parasites, early rings and trophozoites) is “Additive to antagonistic; also recorded: antagonism observed in asynchronous parasites and early rings was attenuated in trophozoites”. Also, the “Mean of the sums of FIC50 (mean ΣFIC50)” value is given as 1.37 in test [1] (setting [15]); 1.52 in test [1] (setting [4]); 1.41 in test [1] (setting [5]); 1.46 in test [1] (setting [6]); 1.23 in test [1] (setting [7]); 1.32 in test [1] (setting [8]). The “Mean of the sums of FIC50 (mean ΣFIC50)” value turned out to be 1.33 in test [1] (setting [9]); 1.44 in test [1] (setting [10]); 1.30 in test [1] (setting [11]); 1.20 in test [1] (setting [12]); 1.20 in test [1] (setting [13]); 1.14 in test [1] (setting [14]).

`C=CC(=O)N1C/C(=C\c2ccc([N+](=O)[O-])cc2)C(=O)/C(=C/c2ccc([N+](=O)[O-])cc2)C1` [b-AP15]: the “Interaction with WLW (isobologram)” value in test [1] (early rings and trophozoites) is “synergy”. The “Mean of the sums of FIC50 (mean ΣFIC50)” value in test [1] (setting [15]) is reported as 1.11; in test [1] (setting [4]) it was 1.05; in test [1] (setting [5]), 0.77; in test [1] (setting [6]), 0.80; in test [1] (setting [7]) it was 0.66; in test [1] (setting [8]) it was 0.67. Also, the “Mean of the sums of FIC50 (mean ΣFIC50)” value is listed as 0.78 in test [1] (setting [9]); 0.86 in test [1] (setting [10]); 0.35 in test [1] (setting [11]); 0.34 in test [1] (setting [12]); 0.52 in test [1] (setting [13]); 0.60 in test [1] (setting [14]). Moreover, in test [1] (early rings and trophozoites), the “Interaction with WLL (isobologram)” value was “Synergy”.
